System: 485368-065-R4-J2-PDC spheroids with HUVEC/MSC, viability
Experiment: Anticancer human tumor 485368-065-R4-J2-PDC patient-derived pancreatic carcinoma cell line growth inhibition [CLK]
Details: for IC50: curve of first compound; for viability, T/C: stronger effect = lower value
Method in brief: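 Multi-cell-type spheroids combined patient-derived tumor cells with HUVEC endothelial cells and human mesenchymal stem cells. Paired agents were dosed in half-log steps down from about clinical Cmax, or from 10 microM where Cmax was unknown.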
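Further: spheroids exposed to compounds for seven days.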
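Wherever viability, T/C is given: 100% = DMSO vehicle control wells.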

C=CC(=O)Nc1cc(Nc2nccc(-c3cn(C)c4ccccc34)n2)c(OC)cc1N(C)CCN(C)C + CN1CCN(c2cc(C(=O)Nc3cc4cc(-c5cnn(C)c5)ccc4cn3)ccn2)CC1
IC50 (second compound 0.0316 µM): > 300 nM | IC50 (second compound 0.1 µM): > 300 nM | IC50 (second compound 0.316 µM): > 300 nM | IC50 (second compound 1 µM): < 0.949 nM | IC50 (second compound 3.16 µM): < 0.949 nM | IC50 (second compound 10 µM): < 0.949 nM | viability, T/C (second compound 0.0316 µM, first compound 0.000949 µM): 106% | viability, T/C (second compound 0.0316 µM, first compound 0.003 µM): 113% | viability, T/C (second compound 0.0316 µM, first compound 0.00949 µM): 99.1% | viability, T/C (second compound 0.0316 µM, first compound 0.03 µM): 101% | viability, T/C (second compound 0.0316 µM, first compound 0.0949 µM): 103% | viability, T/C (second compound 0.0316 µM, first compound 0.3 µM): 100% | viability, T/C (second compound 0.1 µM, first compound 0.000949 µM): 114% | viability, T/C (second compound 0.1 µM, first compound 0.003 µM): 113% | viability, T/C (second compound 0.1 µM, first compound 0.00949 µM): 112% | viability, T/C (second compound 0.1 µM, first compound 0.03 µM): 113% | viability, T/C (second compound 0.1 µM, first compound 0.0949 µM): 105% | viability, T/C (second compound 0.1 µM, first compound 0.3 µM): 103% | viability, T/C (second compound 0.316 µM, first compound 0.000949 µM): 75.7% | viability, T/C (second compound 0.316 µM, first compound 0.003 µM): 83.8% | viability, T/C (second compound 0.316 µM, first compound 0.00949 µM): 84.6% | viability, T/C (second compound 0.316 µM, first compound 0.03 µM): 85.3% | viability, T/C (second compound 0.316 µM, first compound 0.0949 µM): 82.7% | viability, T/C (second compound 0.316 µM, first compound 0.3 µM): 74.2% | viability, T/C (second compound 1 µM, first compound 0.000949 µM): 1.06% | viability, T/C (second compound 1 µM, first compound 0.003 µM): 1.02% | viability, T/C (second compound 1 µM, first compound 0.00949 µM): 0.96% | viability, T/C (second compound 1 µM, first compound 0.03 µM): 0.9% | viability, T/C (second compound 1 µM, first compound 0.0949 µM): 1.6% | viability, T/C (second compound 1 µM, first compound 0.3 µM): 0.54% | viability, T/C (second compound 3.16 µM, first compound 0.000949 µM): 1.42% | viability, T/C (second compound 3.16 µM, first compound 0.003 µM): 2.3% | viability, T/C (second compound 3.16 µM, first compound 0.00949 µM): 1.16% | viability, T/C (second compound 3.16 µM, first compound 0.03 µM): 2.05% | viability, T/C (second compound 3.16 µM, first compound 0.0949 µM): 2.29% | viability, T/C (second compound 3.16 µM, first compound 0.3 µM): 2.5% | viability, T/C (second compound 10 µM, first compound 0.000949 µM): 1.61% | viability, T/C (second compound 10 µM, first compound 0.003 µM): 3.07% | viability, T/C (second compound 10 µM, first compound 0.00949 µM): 1.3% | viability, T/C (second compound 10 µM, first compound 0.03 µM): 1.38% | viability, T/C (second compound 10 µM, first compound 0.0949 µM): 2.42% | viability, T/C (second compound 10 µM, first compound 0.3 µM): 2.16%

CC1(C)CCC(CN2CCN(c3ccc(C(=O)NS(=O)(=O)c4ccc(NCC5CCOCC5)c([N+](=O)[O-])c4)c(Oc4cnc5[nH]ccc5c4)c3)CC2)=C(c2ccc(Cl)cc2)C1 + CN1CCN(c2cc(C(=O)Nc3cc4cc(-c5cnn(C)c5)ccc4cn3)ccn2)CC1
IC50 (second compound 0.0316 µM): 8030 nM | IC50 (second compound 0.1 µM): 7820 nM | IC50 (second compound 0.316 µM): 6550 nM | IC50 (second compound 1 µM): < 31.6 nM | IC50 (second compound 3.16 µM): < 31.6 nM | IC50 (second compound 10 µM): < 31.6 nM | viability, T/C (second compound 0.0316 µM, first compound 0.0316 µM): 102% | viability, T/C (second compound 0.0316 µM, first compound 0.1 µM): 112% | viability, T/C (second compound 0.0316 µM, first compound 0.316 µM): 114% | viability, T/C (second compound 0.0316 µM, first compound 1 µM): 111% | viability, T/C (second compound 0.0316 µM, first compound 3.16 µM): 122% | viability, T/C (second compound 0.0316 µM, first compound 10 µM): 35.4% | viability, T/C (second compound 0.1 µM, first compound 0.0316 µM): 113% | viability, T/C (second compound 0.1 µM, first compound 0.1 µM): 112% | viability, T/C (second compound 0.1 µM, first compound 0.316 µM): 112% | viability, T/C (second compound 0.1 µM, first compound 1 µM): 113% | viability, T/C (second compound 0.1 µM, first compound 3.16 µM): 121% | viability, T/C (second compound 0.1 µM, first compound 10 µM): 32.4% | viability, T/C (second compound 0.316 µM, first compound 0.0316 µM): 86.8% | viability, T/C (second compound 0.316 µM, first compound 0.1 µM): 97.2% | viability, T/C (second compound 0.316 µM, first compound 0.316 µM): 94.6% | viability, T/C (second compound 0.316 µM, first compound 1 µM): 95.3% | viability, T/C (second compound 0.316 µM, first compound 3.16 µM): 104% | viability, T/C (second compound 0.316 µM, first compound 10 µM): 23.5% | viability, T/C (second compound 1 µM, first compound 0.0316 µM): 2.85% | viability, T/C (second compound 1 µM, first compound 0.1 µM): 0.83% | viability, T/C (second compound 1 µM, first compound 0.316 µM): 2.34% | viability, T/C (second compound 1 µM, first compound 1 µM): 1.27% | viability, T/C (second compound 1 µM, first compound 3.16 µM): 1.79% | viability, T/C (second compound 1 µM, first compound 10 µM): 3.68% | viability, T/C (second compound 3.16 µM, first compound 0.0316 µM): 2.29% | viability, T/C (second compound 3.16 µM, first compound 0.1 µM): 1.33% | viability, T/C (second compound 3.16 µM, first compound 0.316 µM): 2.68% | viability, T/C (second compound 3.16 µM, first compound 1 µM): 2.94% | viability, T/C (second compound 3.16 µM, first compound 3.16 µM): 3.79% | viability, T/C (second compound 3.16 µM, first compound 10 µM): 3.42% | viability, T/C (second compound 10 µM, first compound 0.0316 µM): 1.77% | viability, T/C (second compound 10 µM, first compound 0.1 µM): 2.36% | viability, T/C (second compound 10 µM, first compound 0.316 µM): 4.56% | viability, T/C (second compound 10 µM, first compound 1 µM): 5.88% | viability, T/C (second compound 10 µM, first compound 3.16 µM): 3.51% | viability, T/C (second compound 10 µM, first compound 10 µM): 1.68%

— PubChem BioAssay AID2060617 (Molecular Pharmacology Branch, DTP, NCI, 2025)
